The subject of the test is BDF1 mice, L1210/MTX-resistant leukemia ip, survival T/C. The experiment in a line: NCI In Vivo Anticancer Drug Screen. Data for tumor model L1210 Leukemia resistant to Methotrexate; NSC 740 (intraperitoneal) in B6D2F1 (BDF1) mice. To be noted: endpoint: mean survival time, higher = longer survival. As for the experimental part: The antitumor activity of compounds was measured in mice bearing transplantable tumors. Survival or tumor size were measured and the results are expressed as the measurement made in the treated group (T) divided by the measurement made in the vehicle treated control group (C). The tumor model used in this assay is L1210 Leukemia resistant to Methotrexate; NSC 740 (intraperitoneal) in B6D2F1 (BDF1) mice

[1] abbreviates: dose: 2.0 mg/kg/injection, schedule: Q01DX Z (ip), vehicle: carboxymethylcellulose (CMC).
[2] abbreviates: dose: 5.0 mg/kg/injection, schedule: Q01DX Z (ip), vehicle: carboxymethylcellulose (CMC).
[3] abbreviates: dose: 6.25 mg/kg/injection, schedule: Q01DX Z (ip), vehicle: carboxymethylcellulose (CMC).
[4] abbreviates: dose: 12.5 mg/kg/injection, schedule: Q01DX Z (ip), vehicle: carboxymethylcellulose (CMC).
The mark [5] stands for this setting: dose: 25.0 mg/kg/injection, schedule: Q01DX Z (ip), vehicle: carboxymethylcellulose (CMC).
Setting [6] is: dose: 12.5 mg/kg/injection, schedule: Q01DX010 (ip), vehicle: saline.
The mark [7] stands for this setting: dose: 25.0 mg/kg/injection, schedule: Q01DX010 (ip), vehicle: saline.
Where [8] appears, read: dose: 50.0 mg/kg/injection, schedule: Q01DX010 (ip), vehicle: saline.
Setting [9] is: dose: 50.0 mg/kg/injection, schedule: Q01DX Z (ip), vehicle: carboxymethylcellulose (CMC).
Setting [10] is: dose: 100.0 mg/kg/injection, schedule: Q01DX Z (ip), vehicle: carboxymethylcellulose (CMC).
Setting [11] is: dose: 4.0 mg/kg/injection, schedule: Q01DX010 (ip), vehicle: saline.
[12] abbreviates: dose: 12.5 mg/kg/injection, schedule: Q01DX010 (sc), vehicle: steriod suspending solution.
[13] abbreviates: dose: 50.0 mg/kg/injection, schedule: Q01DX010 (sc), vehicle: steriod suspending solution.
Setting [14] is: dose: 100.0 mg/kg/injection, schedule: Q01DX010 (sc), vehicle: steriod suspending solution.
The mark [15] stands for this setting: dose: 100.0 mg/kg/injection, schedule: Q01DX010 (ip), vehicle: saline.
Setting [16] is: dose: 16.0 mg/kg/injection, schedule: Q01DX010 (ip), vehicle: saline.
Where [17] appears, read: dose: 32.0 mg/kg/injection, schedule: Q01DX010 (ip), vehicle: saline.

“And” between values parts separate entries of the source, which are not always exact repeats. Identical values can stand only once. Inconclusive results and toxic doses are left out.

For `O=C(O)CCCc1ccc(N(CCCl)CCCl)cc1`, the T/C is 105 % of control (dose: 1.0 mg/kg/injection, schedule: Q01DX Z (ip), vehicle: carboxymethylcellulose (CMC)); 97 % of control under setting [1]; 96 % of control (dose: 4.0 mg/kg/injection, schedule: Q01DX Z (ip), vehicle: carboxymethylcellulose (CMC)); 103 % of control under setting [2]; 107 % of control under setting [3]; 95 % of control under setting [4]. The T/C under setting [5] is 90 % of control.

As to `CS(=O)(=O)OCCCCOS(C)(=O)=O`, the T/C is 88 % of control and 105 % of control (dose: 0.38 mg/kg/injection, schedule: Q01DX Z (ip), vehicle: methylcellulose (MC)); 93 % of control and 97 % of control (dose: 0.75 mg/kg/injection, schedule: Q01DX Z (ip), vehicle: methylcellulose (MC)); 97 % of control (dose: 6.25 mg/kg/injection, schedule: Q01DX010 (ip), vehicle: saline); 92 % of control and 93 % of control under setting [6]; 106 % of control under setting [4]; 91 % of control under setting [7]. In addition, under setting [8], the T/C is 102 % of control.

On to `N#CCSc1ncnc2nc[nH]c12`, for which the T/C runs as follows: under setting [5], 101 % of control; under setting [9], 120 % of control; under setting [10], 111 % of control.

For the compound `CC1(C)N=C(N)N=C(N)N1c1cccc(Br)c1`, the T/C under setting [1] is 97 % of control; the T/C under setting [3] was 109 % of control; the T/C under setting [4] was 98 % of control; the T/C under setting [5] was 98 % of control; the T/C under setting [9] is 92 % of control.

On to `O=c1cnn(C2OC(CO)C(O)C2O)c(=O)[nH]1` (stereo unspecified), for which the T/C runs as follows: (dose: 125.0 mg/kg/injection, schedule: Q01DX Z (ip), vehicle: methylcellulose (MC)) 97 % of control; (dose: 250.0 mg/kg/injection, schedule: Q01DX Z (ip), vehicle: methylcellulose (MC)) 95 % of control; (dose: 500.0 mg/kg/injection, schedule: Q01DX Z (ip), vehicle: methylcellulose (MC)) 104 % of control.

In the case of `NC(=O)N(CCCl)N=O`, the T/C reads like this: (dose: 0.5 mg/kg/injection, schedule: Q01DX010 (ip), vehicle: saline) 158 % of control; under setting [11], 104 % of control.

For `C[C@]12C=CC(=O)C=C1CC[C@@H]1[C@@H]2[C@@H](O)C[C@@]2(C)[C@H]1CC[C@]2(O)C(=O)CO`, the T/C is 88 % of control under setting [12]; 99 % of control (dose: 25.0 mg/kg/injection, schedule: Q01DX010 (sc), vehicle: steriod suspending solution); 86 % of control under setting [13]; 90 % of control under setting [14].

As to `CC/C(=C(/CC)c1ccc(O)cc1)c1ccc(O)cc1`, the T/C reads like this: under setting [6], 94 % of control; under setting [12], 92 % of control; under setting [7], 94 % of control; under setting [13], 89 % of control; under setting [14], 86 % of control and 87 % of control.

For the compound `O=C1C(NC(=O)C2CCCCC2)=C(N2CC2)C(=O)C(NC(=O)C2CCCCC2)=C1N1CC1`, the T/C was 89 % of control (dose: 11.0 mg/kg/injection, schedule: Q01DX010 (ip), vehicle: saline); 101 % of control (dose: 22.0 mg/kg/injection, schedule: Q01DX010 (ip), vehicle: saline); 112 % of control under setting [7]; 98 % of control (dose: 44.0 mg/kg/injection, schedule: Q01DX010 (ip), vehicle: saline); 108 % of control under setting [8]; 95 % of control (dose: 88.0 mg/kg/injection, schedule: Q01DX010 (ip), vehicle: saline). In addition, the T/C is 109 % of control under setting [15] and 109 % of control (dose: 200.0 mg/kg/injection, schedule: Q01DX010 (ip), vehicle: saline).

As for `CCN(CC)c1ccc2cc3ccc(=[N+](CC)CC)cc-3oc2c1`, the T/C is 100 % of control (dose: 1.0 mg/kg/injection, schedule: Q01DX010 (ip), vehicle: saline); 91 % of control (dose: 2.0 mg/kg/injection, schedule: Q01DX010 (ip), vehicle: saline); 98 % of control under setting [11].

Take `CN(C)/N=N/c1nc[nH]c1C(N)=O`: the T/C reads like this: under setting [6], 108 % of control; under setting [7], 118 % of control; under setting [8], 119 % of control; under setting [15], 118 % of control.

Regarding `CN(C)C(=S)N=Nc1c(O)[nH]c2ccccc12`, the T/C runs as follows: (dose: 2.5 mg/kg/injection, schedule: Q01DX Z (ip), vehicle: carboxymethylcellulose (CMC)) 110 % of control; under setting [2], 106 % of control; (dose: 10.0 mg/kg/injection, schedule: Q01DX Z (ip), vehicle: carboxymethylcellulose (CMC)) 115 % of control; (dose: 20.0 mg/kg/injection, schedule: Q01DX Z (ip), vehicle: carboxymethylcellulose (CMC)) 95 % of control; under setting [9], 124 % of control; under setting [10], 86 % of control.

As to `Cn1cnc([N+](=O)[O-])c1Sc1nc(N)nc2nc[nH]c12`, the T/C by setting is: (dose: 1.0 mg/kg/injection, schedule: Q01DX Z (ip), vehicle: methylcellulose (MC)) 92 % of control; (dose: 2.0 mg/kg/injection, schedule: Q01DX Z (ip), vehicle: methylcellulose (MC)) 96 % of control; (dose: 4.0 mg/kg/injection, schedule: Q01DX Z (ip), vehicle: methylcellulose (MC)) 109 % of control.

As for `CN(C)c1nc(N(C)C)nc(N(C)C)n1`, the T/C runs as follows: (dose: 0.5 mg/kg/injection, schedule: Q01DX Z (ip), vehicle: other) 93 % of control; (dose: 1.0 mg/kg/injection, schedule: Q01DX Z (ip), vehicle: other) 103 % of control; (dose: 4.0 mg/kg/injection, schedule: Q01DX Z (ip), vehicle: other) 109 % of control; (dose: 18.8 mg/kg/injection, schedule: Q01DX010 (ip), vehicle: saline) 109 % of control; (dose: 37.5 mg/kg/injection, schedule: Q01DX010 (ip), vehicle: saline) 105 % of control; (dose: 75.0 mg/kg/injection, schedule: Q01DX010 (ip), vehicle: saline) 93 % of control. The T/C (dose: 87.5 mg/kg/injection, schedule: Q01DX Z (ip), vehicle: other) was 101 % of control; the T/C (dose: 150.0 mg/kg/injection, schedule: Q01DX010 (ip), vehicle: saline) is 104 % of control; the T/C (dose: 175.0 mg/kg/injection, schedule: Q01DX Z (ip), vehicle: other) was 94 % of control.

`c1ccc(CNc2ncnc3[nH]ncc23)cc1`: the T/C is 94 % of control and 103 % of control (dose: 8.0 mg/kg/injection, schedule: Q01DX010 (ip), vehicle: saline); 96 % of control and 100 % of control under setting [16]; 91 % of control under setting [17].

With `CSc1ncnc2nc[nH]c12`, the T/C runs as follows: (dose: 7.5 mg/kg/injection, schedule: Q01DX Z (ip), vehicle: carboxymethylcellulose (CMC)) 93 % of control; (dose: 15.0 mg/kg/injection, schedule: Q01DX Z (ip), vehicle: carboxymethylcellulose (CMC)) 86 % of control; (dose: 31.0 mg/kg/injection, schedule: Q01DX Z (ip), vehicle: carboxymethylcellulose (CMC)) 122 % of control; (dose: 62.5 mg/kg/injection, schedule: Q01DX Z (ip), vehicle: carboxymethylcellulose (CMC)) 112 % of control; (dose: 125.0 mg/kg/injection, schedule: Q01DX Z (ip), vehicle: carboxymethylcellulose (CMC)) 107 % of control.

On to `C[C@@H]1C[C@H]2CC[C@H](O2)[C@H](C)C(=O)O[C@@H](C)C[C@@H]2CC[C@@H](O2)[C@@H](C)C(=O)O[C@H](C)C[C@H]2CC[C@H](O2)[C@H](C)C(=O)O[C@@H](C)C[C@@H]2CC[C@@H](O2)[C@@H](C)C(=O)O1`, for which, under “dose: 100.0 mg/kg/injection, schedule: Q01DX Z (ip), vehicle: methylcellulose (MC)”, the T/C is 89 % of control.

Turning to `CCCCn1cnc2c(=S)nc[nH]c21`, the T/C was 114 % of control under setting [16]; 97 % of control under setting [17]; 105 % of control (dose: 64.0 mg/kg/injection, schedule: Q01DX010 (ip), vehicle: saline).

The record behind these values is PubChem BioAssay AID284 (DTP/NCI, 2004).
